# Results taken from paper PMC11597260 (Pharmaceutics, 2024).
# Values joined by “and” are separate entries in the source; they are usually repeats but may differ in a detail not shown here. Identical values can stand only once. Like-named read-outs stand apart in the source and are kept apart here.
# Key:
# [1] = Pharmacokinetic study in rats after oral and intratracheal administration of curcumin (plasma, LC-MS/MS); type: in vivo, Sprague-Dawley rats
# Experimental: This preparation was then diluted with saline to obtain the desired concentrations for animal experiments.
# Twelve male SD rats were randomly divided into two groups with six rats each, one for oral administration and the other for inhalation administration. […] Blood samples of approximately 200 μL were collected via intravenous routes at pre-determined time points: before administration and at 5, 15, 30, and 45 min, and 1, 2, 4, 6, and 8 h post-administration. The blood samples were immediately placed in heparinized EP tubes and kept on ice. […] The specific method of intratracheal administration is depicted in Figure 1, and details of the administration process are provided in the Supplementary Materials (Supplementary Figure S2). Blood samples of about 200 μL were collected at time points before administration and at 2, 5, 15, and 30 min, and 1, 2, 4, 6, 8, 12, and 24 h post-administration, also placed in heparinized EP tubes and kept on ice. The whole blood samples were centrifuged at 4 °C at 5000× g for 10 min within 30 min of collection. The plasma was then separated, aliquoted, and stored at −40 °C until analysis.
# The major pharmacokinetic parameters including elimination half-life (t1/2), time to reach peak concentration (Tmax), peak concentration (Cmax), area under the curve (AUC), and mean residence time (MRT) were calculated using Phoenix WinNonlin software (Version 8.2, Certara, Radnor, PA, USA). A non-compartmental model was employed for these calculations, which is suitable for analyzing drug concentration data over time without assuming a specific compartmental structure. Graph Prism 8 was utilized to create graphs and plots that illustrate the pharmacokinetic behavior of the compounds of interest. Statistical analysis was performed using IBM SPSS Statistics 26 to conduct a t-test on the dose-normalized AUC(0−t) values from the two different administration groups. […] The results were considered statistically significant at a p-value less than 0.05, indicating a difference between the groups.
# [2] = Stability of spiked rat plasma QC samples under storage conditions; type: in vitro ADME; settings: for Stability, Accuracy (%): rat plasma, mean ± SD, n = 3; for stability of rat plasma samples under storage conditions: room temperature 4 h, 4 °C 8 h, −40 °C 7 days, three freeze–thaw cycles
# [3] = test system: Caco-2 cell model; settings: cited from earlier work
# [4] = oral curcumin in rats; cited from earlier work
# [5] = male, Sprague-Dawley, rat, plasma, inhaled or intranasal, 10 mg/kg
# [6] = 6 ng/mL, freeze-thaw three cycles
# [7] = 6 ng/mL, room temperature for 4 h
# [8] = 60 ng/mL, freeze-thaw three cycles
# [9] = 60 ng/mL, room temperature for 4 h
# [10] = 320 ng/mL, freeze-thaw three cycles
# [11] = 320 ng/mL, room temperature for 4 h
# [12] = rat plasma, i.t. curcumin 10 mg/kg (27.17 μmol/kg), mean ± SD, n = 6
# [13] = rat plasma, i.t. curcumin 10 mg/kg, dose-normalized to oral dose (inhalation/0.5)
# [14] = rat plasma, p.o. curcumin 20 mg/kg (54.34 μmol/kg), mean ± SD, n = 6
"Stability, Accuracy (%) ([2]; 6 ng/mL, 4 ℃ for 8 h)","Stability, Accuracy (%) ([2]; 6 ng/mL, 40 ℃ for 7 d)","Stability, Accuracy (%) [2, 6]","Stability, Accuracy (%) [2, 7]","Stability, Accuracy (%) ([2]; 60 ng/mL, 4 ℃ for 8 h)","Stability, Accuracy (%) ([2]; 60 ng/mL, 40 ℃ for 7 d)","Stability, Accuracy (%) [2, 8]","Stability, Accuracy (%) [2, 9]","Stability, Accuracy (%) ([2]; 320 ng/mL, 4 ℃ for 8 h)","Stability, Accuracy (%) ([2]; 320 ng/mL, 40 ℃ for 7 d)","Stability, Accuracy (%) [2, 10]","Stability, Accuracy (%) [2, 11]","AUC(0–t) [1, 12]","AUC(0–∞) [1, 12]","Cmax [1, 12]","MRT(0–t) [1, 12]","Tmax [1, 12]","t1/2 [1, 12]","AUC(0–t)/0.5 [1, 13]","AUC(0–t) [1, 14]",SMILES,other results
96.00±2.57%,105.13±4.11%,102.33±7.46%,92.53±2.91%,97.73±0.83%,97.40±0.36%,95.20±2.19%,98.57±2.22%,102.67±0.06%,93.87±3.21%,90.10±4.20%,103.93±1.07%,,,,,,,,,"COc1cc(/C=C/C(=O)CC(=O)/C=C/c2ccc(O)c(OC)c2)ccc1O [CUR, Curcumin]","AUC(0-inf) [1, 5]: 1.38 ± 0.37 µM·h; Cmax [1, 5]: 2880 ± 742 nM; half-life [1, 5]: 3.73 ± 1.03 h; AUC(0-t) ([1]; male, Sprague-Dawley, rat, plasma, inhaled or intranasal, 10 mg/kg, rat plasma, i.t. curcumin 10 mg/kg (27.17 μmol/kg), mean ± SD, n = 6, read-out: AUC(0–t)): 1.33 ± 0.374 µM·h; AUC(0-t) ([1]; male, Sprague-Dawley, rat, plasma, inhaled or intranasal, 10 mg/kg, rat plasma, i.t. curcumin 10 mg/kg, dose-normalized to oral dose (inhalation/0.5), read-out: AUC(0–t)/0.5): 2.65 ± 0.749 µM·h; MRT last ([1]; male, Sprague-Dawley, rat, plasma, inhaled or intranasal, 10 mg/kg, read-out: MRT(0–t)): 2.01 ± 0.78 h; Tmax ([1]; male, Sprague-Dawley, rat, plasma, inhaled or intranasal, 10 mg/kg, read-out: Tmax): 0.05 ± 0.03 h; AUC(0-t) ([1]; male, Sprague-Dawley, rat, plasma, po, 20 mg/kg, rat plasma, p.o. curcumin 20 mg/kg, calculated using the lower limit of quantification over 6 h, read-out: AUC(0–t)): < 0.0326 µM·h; plasma levels of the parent compound (below lower limit of quantification) ([1]; rat plasma, oral dosing of 20 mg/kg curcumin, 20 mg/kg): < 2 ng/mL and < 5.434 nM; Papp [3]: 3.18 ± 1.08 × 10^−6 cm/s; bioavailability [4]: less than 1%"
100.63±2.40%,90.73±1.36%,93.73±4.97%,99.67±4.83%,93.27±2.31%,94.53±0.40%,93.23±0.96%,96.63±1.39%,99.23±1.50%,92.43±5.58%,93.80±0.46%,100.77±0.65%,1.377 ± 0.6043 µM·h,1.444 ± 0.6249 µM·h,416 ± 138 nM,5.14 ± 1.03 h,0.38 ± 0.14 h,5.02 ± 1.27 h,2.754 ± 1.208 µM·h,0.04978 ± 0.02714 µM·h,COc1cc(/C=C/C(=O)CC(=O)/C=C/c2ccc(OS(=O)(=O)O)c(OC)c2)ccc1O [COS],"exposure, AUC(0–t)/0.5 intratracheal relative to AUC(0–t) oral ([1]; rat plasma, i.t. 10 mg/kg dose-normalized vs p.o. 20 mg/kg): ~50 fold; AUC(0–∞) [1, 14]: 0.0577 ± 0.02778 µM·h; Cmax [1, 14]: 23.4 ± 9.4 nM; MRT(0–t) [1, 14]: 2.37 ± 0.98 h; Tmax [1, 14]: 1.13 ± 0.96 h; t1/2 [1, 14]: 1.11 ± 0.87 h; stability of rat plasma samples under storage conditions [2]: stable"
88.10±4.59%,104.10±7.03%,89.23±3.79%,90.20±4.16%,90.43±2.97%,87.13±2.10%,87.93±2.81%,95.53±2.01%,93.60±2.52%,88.93±0.99%,87.87±2.32%,95.73±2.23%,0.8863 ± 0.1783 µM·h,0.9189 ± 0.1678 µM·h,521 ± 203 nM,4.33 ± 1.69 h,0.25 ± 0.00 h,3.10 ± 0.95 h,1.772 ± 0.3566 µM·h,1.68 ± 0.2441 µM·h,COc1cc(/C=C/C(=O)CC(=O)/C=C/c2ccc(O[C@@H]3O[C@H](C(=O)O)[C@@H](O)[C@H](O)[C@H]3O)c(OC)c2)ccc1O [COG],"exposure relative to COS ([1]; rat plasma, oral dosing of 20 mg/kg curcumin): 30–40 times; AUC(0–∞) [1, 14]: 1.73 ± 0.2565 µM·h; Cmax [1, 14]: 830 ± 158 nM; MRT(0–t) [1, 14]: 2.54 ± 0.29 h; Tmax [1, 14]: 0.54 ± 0.71 h; t1/2 [1, 14]: 1.74 ± 0.57 h; stability of rat plasma samples under storage conditions [2]: stable"
